Assay results from US5620864A, “Acceptor for fucosyl transferase” (Health Research, Inc., priority 1992, dated 1997).
“And” between values parts separate entries of the source, which are not always exact repeats. Equal entries are not always repeated.

What was measured:
[1] = system: α1,3-L-fucosyltransferase of the soluble fraction of human ovarian tumor; test: Assay of α1,3-fucosyltransferase with synthetic acceptors, partially purified enzyme of ovarian tumor soluble fraction; assay type: biochemical; conditions: for [14C] Fucose Incorporated (CPM): acceptor 3.0 mM, 37° C. 18 h
Protocol: (§1) An incubation mixture contained 50 mM HEPES-NaOH, pH 7.5, 5 mM MnC12, 7 mM ATP, 3 mM NaN3, the acceptor 0.3 mM (for serum enzyme) or 3.0 mM (for tumor enzyme), 0.125 μCi of GDP-[U-^14 C] Fuc (Sp. Act. 216 mCi/mmol) and enzyme in a total volume of 0.10 ml; the control incubation mixture had everything except the acceptor. At the end of incubation at 37° C. for 18 h, the mixture was diluted with 1 ml water and passed through Dowex-1-C1 column (1 ml in a Pasteur pipet). The column was washed twice with 1 ml water; the breakthrough and wash, which contained the [^14 C] fucosylated neutral acceptor, were collected together in a scintillation vial and counted for radioactivity using the scintillation coctail 3a70 (Research Products International, Mount Prospects, Ill.) and Beckman LS9000. The Dowex column was then eluted successively with 3 ml each of 0.1M and 0.2M NaCl; these eluates which contained the [^14 C] fucosylated sulfated acceptors, were counted for radioactivity as before. Corrections were made by subtracting the radioactivity in the water and NaCl eluates of the control incubation mixture from the corresponding test fractions. The duplicate runs of samples gave almost identical values, the difference being <5%.
As shown in the scheme set forth in FIG. 2, the α-L-fucosidase-free extract of the tissue (40 g), after concentration by 80% (NH4)2 SO4 precipitation was fractionated on bovine IgG glycopep-Sepharose in batches of 25 ml. After washing the column with the equilibration buffer, the bound enzyme was eluted with 1 M NaCl in the same buffer. The protein positive fractions were pooled and processed as shown in the scheme 2.0 ml of the above preparation was loaded on a Sephacryl S-200 column (Superfine:2.6 cm×88.0 cm) equilibrated at 4° C. with 50 mM Tris-HC1, pH 7.0 containing 0.15M NaCl and 0.1% Triton X-100 and eluted with the same buffer. Fractions of 3.0 ml were collected. The fucosyltransferase activity was located in the effluent fractions, by assaying first every 5th fraction and then obtaining the activity profile by assaying the alternate fractions in that range, using 2'-fucosyl LacNAc as the acceptor. […] Its elution position, which is slightly later than BSA, run separately on the same column, indicates its molecular weight as <67,000 daltons. […] The enzyme has been purified 66 fold over the soluble extract with a recovery of 6.2%. The enzyme at this stage lost its activity either kept frozen at -20° C. or left at 4° C. for more than a week. However, the enzyme at the end of the previous step was fairly stable for at least two months at 4° C. So this preparation of enzyme was used in acceptor ability comparison studies.
When α1,3-fucosyltransferase activity of the partially purified enzyme preparation from the soluble portion of ovarian tumor was measured and compared with the activity of other acceptors, the following results were obtained. 2'-methyl LacNAc, LacNAc and Galβ1, 3GlcNAc were respectively 100.0%, 60.6% and 565.5% active, indicating the presence of both α1,3 and α1,4 fucosyltransferase activities in this preparation.

[2] = system: α1,3-L-fucosyltransferase of the particulate fraction of ovarian tumor; test: Assay of α1,3-fucosyltransferase with synthetic acceptors, ovarian tumor particulate fraction; assay type: biochemical, human; conditions: for [14C] Fucose Incorporated (CPM): acceptor 3.0 mM, 37° C. 18 h
Protocol: FIG. 2 The scheme for the preparation of the particulate and soluble fractions of human ovarian tumor.
as §1
This finding is quite different from what we found with the soluble fraction, where α1,4-fucosyltransferase activity seems to be greater than α1,3-fucosyltransferase activity. […] The different nature of the above enzymes was made further clear, when sulfated derivatives of LacNAc was tested as acceptors.

[3] = system: serum α1,3-L-fucosyltransferase; test: Acceptor ability in presence of the competitive substrate (3'-sulfo LacNAc vs 2'-methyl LacNAc), ovarian cancer sera; assay type: biochemical, human; conditions: for Km: serum enzyme
Protocol: as §1
The superiority of 3'-sulfo LacNAc over 2'-methyl LacNAc as the substrate for measuring serum α1,3 fucosyltransferase was tested in three different ways. First, the incubation mixtures in duplicate contained 0.3 mM 3'-sulfo LacNAc and varying amounts of 2'-methyl LacNAc (0 to 7.5 mM); the incorporation of [^14 C] fucose by the serum enzyme into both substrates was measured (Table III). The incorporation of [^14 C] fucose into 3'-sulfo LacNAc decreased and into 2'-methyl LacNAc increased with the increase in the concentration of the latter. […] 25 fold less than 2' methyl LacNAc. Secondly, the incubation mixtures in duplicate contained 3.0 mM 2'-methyl LacNAc and varying amounts of 3'-sulfo LacNAc (0 to 0.75 mM); the incorporation of [^14 C] fucose by the same serum enzyme into both substrates was measured (Table III). The [^14 C] fucose incorporation into 2'-methyl LacNAc decreased and into 3'-sulfo LacNAc increased by increasing the concentration of the latter. […] Thirdly, both 2'-methyl LacNAc and 3'-sulfo LacNAc at 0.3 mM concentration were incubated separately in duplicates with six ovarian cancer sera and one normal serum; the incorporation of [^14 C] fucose into these acceptors were quantitated (Table IV). The [^14 C] fucose incorporation into 3'-sulfo LacNAc was consistently higher (4-5 fold) than that into 2'-methyl LacNAc, including the assay of the normal serum. […] These values indicate that 3'-sulfo LacNAc is a very high affinity acceptor for α1,3 fucosyltransferase. The [^14 C] fucosylated product arising from 3'-sulfo LacNAc has been tentatively identified as 3'-sulfo, 3-fucosyl LacNAc by comparing strictly its mobility on paper with the synthetic authentic compound 3'-sulfo, 3-fucosyl LacNAc (see FIG. 5).

[4] = 2'-methyl LacNAc = 100, listed as 3'-Sulfo LacNAc
[5] = 2'-methyl LacNAc = 100, listed as 3'-sulfo LacNAc
[6] = 2'-Methyl LacNAc 3.0 mM + 3'-Sulfo LacNAc 0 mM
[7] = 2'-Methyl LacNAc 3.0 mM + 3'-Sulfo LacNAc 0.15 mM
[8] = 2'-Methyl LacNAc 3.0 mM + 3'-Sulfo LacNAc 0.30 mM
[9] = 2'-Methyl LacNAc 3.0 mM + 3'-Sulfo LacNAc 0.45 mM
[10] = 2'-Methyl LacNAc 3.0 mM + 3'-Sulfo LacNAc 0.65 mM
[11] = 2'-Methyl LacNAc 3.0 mM + 3'-Sulfo LacNAc 0.75 mM
[12] = 3'-Sulfo LacNAc 0.3 mM + 2'-Methyl LacNAc 0 mM
[13] = 3'-Sulfo LacNAc 0.3 mM + 2'-Methyl LacNAc 1.5 mM
[14] = 3'-Sulfo LacNAc 0.3 mM + 2'-Methyl LacNAc 3.0 mM
[15] = 3'-Sulfo LacNAc 0.3 mM + 2'-Methyl LacNAc 4.5 mM
[16] = 3'-Sulfo LacNAc 0.3 mM + 2'-Methyl LacNAc 6.0 mM
[17] = 3'-Sulfo LacNAc 0.3 mM + 2'-Methyl LacNAc 7.5 mM

Relative Percent ([1]; 2'-methyl LacNAc = 100) [%] | [14C] Fucose Incorporated (CPM) [1] [CPM] | Relative Percent ([2]; 2'-methyl LacNAc = 100) [%] | [14C] Fucose Incorporated (CPM) [2] [CPM] | Incorporation of [14C] Fucose (CPM) [3, 6] [CPM] | Incorporation of [14C] Fucose (CPM) [3, 7] [CPM] | Incorporation of [14C] Fucose (CPM) [3, 8] [CPM] | Incorporation of [14C] Fucose (CPM) [3, 9] [CPM] | Incorporation of [14C] Fucose (CPM) [3, 10] [CPM] | Incorporation of [14C] Fucose (CPM) [3, 11] [CPM] | Incorporation of [14C] Fucose (CPM) [3, 12] [CPM] | Incorporation of [14C] Fucose (CPM) [3, 13] [CPM] | Incorporation of [14C] Fucose (CPM) [3, 14] [CPM] | Incorporation of [14C] Fucose (CPM) [3, 15] [CPM] | Incorporation of [14C] Fucose (CPM) [3, 16] [CPM] | Incorporation of [14C] Fucose (CPM) [3, 17] [CPM] | SMILES | also measured
447.1 | 33049 | 39.0 | 18793 | 140 | 1294 | 2181 | 2417 | 2373 | 2560 | 2520 | 2132 | 1872 | 1748 | 1712 | 1428 | CC(=O)N[C@H]1C(O)O[C@H](CO)[C@@H](O[C@@H]2O[C@H](CO)[C@H](O)[C@H](OS(=O)(=O)O)[C@H]2O)[C@@H]1O (stereo partly drawn) [3'-Sulfo-LacNAc, SODIUM β-D-GALACTOPYRANOSYL 3-SULFATE-(1→4)-2-ACETAMIDO-2-DEOXY-D-GLUCOPYRANOSE] | Relative Percent [1, 4]: 447%; Relative Percent [1, 5]: 447% and 447.1%; Relative Percent [2, 4]: 39%; Relative Percent [2, 5]: 39.0%; inhibition of the [14C] fucose incorporation into 2'-methyl LacNAc ([3]; 3'-Sulfo LacNAc 0.75 mM, 2'-methyl LacNAc 3.0 mM): 68%; Km ([3]; 3'-sulfo LacNAc in presence of 3.0 mM 2'-methyl LacNAc): 0.12 mM
100 | 7392 | 100 | 48252 | 3664 | 2581 | 2191 | 1737 | 1184 | 1187 | 157 | 1143 | 1614 | 1973 | 2698 | 2788 | CO[C@H]1[C@H](O[C@H]2[C@H](O)[C@@H](NC(C)=O)C(O)O[C@@H]2CO)O[C@H](CO)[C@H](O)[C@@H]1O (some centres unmarked) [2'-methyl LacNAc] | inhibition of the [14C] fucose incorporation into 3'-sulfo LacNAc ([3]; 2'-methyl LacNAc 7.5 mM, 3'-sulfo LacNAc 0.3 mM): 43%; Km ([3]; 2'-methyl LacNAc in presence of 0.3 mM 3'-sulfo LacNAc): 6.67 mM; inhibition by 2'-methyl LacNAc of incorporation into 3'-sulfo LacNAc ([3]; 3'-sulfo LacNAc present at 3.0 mM): no inhibition
